What is called inhibition is how much of the control response was suppressed. Lower therefore signals a response near the control.

Common to all, as to assay: Kinobeads competition binding, HL60 cell lysate
What all share (parameters): endogenous in cells
What all share (settings): 10 μM free compound

In one test the target is BTK (Homo sapiens, UniProt Q06187). A digest of the protocol: (§1)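 Free compound 10 μM → HL60 lysate; affinity matrix with same compound immobilized, 2 h 4 °C; SDS elution, SDS-PAGE, in-gel trypsin; iTRAQ 114/117 labels vs 0.5% DMSO control; nano-LC-MS/MS, reporter-ion quantitation.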
The target of a further test is CDK2 (Homo sapiens, UniProt P24941). A digest of the protocol: as §1
In another test the target is FES (Homo sapiens, UniProt P07332). The essentials:
as §1

In another test the target is IRE1 (Homo sapiens, UniProt O75460). A digest of the protocol: as §1
For the next test, the target named is MAP3K1 (Homo sapiens, UniProt Q13233). The essentials:
as §1

The target of another test is T1, PKD3 (Homo sapiens, UniProt O94806).
T1 sequence (O94806 1-890): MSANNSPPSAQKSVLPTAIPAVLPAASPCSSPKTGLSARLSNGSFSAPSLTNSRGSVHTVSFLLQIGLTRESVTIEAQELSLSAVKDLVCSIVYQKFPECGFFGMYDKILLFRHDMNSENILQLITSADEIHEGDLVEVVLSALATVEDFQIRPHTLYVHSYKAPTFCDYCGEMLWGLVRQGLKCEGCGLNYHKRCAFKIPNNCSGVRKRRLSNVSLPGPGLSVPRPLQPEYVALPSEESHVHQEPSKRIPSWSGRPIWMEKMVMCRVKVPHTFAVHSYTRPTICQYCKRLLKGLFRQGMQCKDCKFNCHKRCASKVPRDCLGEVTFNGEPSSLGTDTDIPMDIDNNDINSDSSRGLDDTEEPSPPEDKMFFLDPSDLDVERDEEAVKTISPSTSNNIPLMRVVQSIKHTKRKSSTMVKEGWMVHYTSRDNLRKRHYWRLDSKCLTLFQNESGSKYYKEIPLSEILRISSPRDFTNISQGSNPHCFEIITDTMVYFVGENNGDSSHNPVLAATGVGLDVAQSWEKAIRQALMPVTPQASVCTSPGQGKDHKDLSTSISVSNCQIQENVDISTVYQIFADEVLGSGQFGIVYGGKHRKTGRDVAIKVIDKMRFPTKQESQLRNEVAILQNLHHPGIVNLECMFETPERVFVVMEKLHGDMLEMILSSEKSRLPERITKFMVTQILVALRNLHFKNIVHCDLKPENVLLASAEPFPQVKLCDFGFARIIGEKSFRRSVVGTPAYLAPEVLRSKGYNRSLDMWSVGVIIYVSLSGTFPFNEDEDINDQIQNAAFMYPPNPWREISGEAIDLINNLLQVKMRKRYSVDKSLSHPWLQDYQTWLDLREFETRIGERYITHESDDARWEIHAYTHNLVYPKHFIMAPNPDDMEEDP
The essentials:
as §1

In a further test the target is YES (Homo sapiens, UniProt P07947). A digest of the protocol:
as §1

Chain of BTK (Q06187 whole entry): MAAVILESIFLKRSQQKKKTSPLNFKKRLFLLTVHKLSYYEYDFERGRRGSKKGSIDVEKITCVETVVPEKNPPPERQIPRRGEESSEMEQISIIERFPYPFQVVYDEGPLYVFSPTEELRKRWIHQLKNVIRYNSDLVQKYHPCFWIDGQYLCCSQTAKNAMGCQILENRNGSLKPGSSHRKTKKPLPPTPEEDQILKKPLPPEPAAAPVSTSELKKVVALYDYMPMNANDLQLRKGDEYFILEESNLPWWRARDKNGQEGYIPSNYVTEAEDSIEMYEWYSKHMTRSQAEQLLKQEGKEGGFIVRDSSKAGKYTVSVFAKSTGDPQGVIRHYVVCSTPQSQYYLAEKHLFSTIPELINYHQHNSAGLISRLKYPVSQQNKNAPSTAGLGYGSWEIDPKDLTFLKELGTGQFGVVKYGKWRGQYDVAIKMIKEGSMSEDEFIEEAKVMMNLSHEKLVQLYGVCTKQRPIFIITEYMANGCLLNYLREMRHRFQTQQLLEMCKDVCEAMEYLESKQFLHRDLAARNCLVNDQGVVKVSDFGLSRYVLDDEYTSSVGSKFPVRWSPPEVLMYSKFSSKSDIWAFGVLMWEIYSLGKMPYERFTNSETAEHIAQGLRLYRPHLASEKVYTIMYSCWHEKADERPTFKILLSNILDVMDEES
Chain of FES (P07332 whole entry): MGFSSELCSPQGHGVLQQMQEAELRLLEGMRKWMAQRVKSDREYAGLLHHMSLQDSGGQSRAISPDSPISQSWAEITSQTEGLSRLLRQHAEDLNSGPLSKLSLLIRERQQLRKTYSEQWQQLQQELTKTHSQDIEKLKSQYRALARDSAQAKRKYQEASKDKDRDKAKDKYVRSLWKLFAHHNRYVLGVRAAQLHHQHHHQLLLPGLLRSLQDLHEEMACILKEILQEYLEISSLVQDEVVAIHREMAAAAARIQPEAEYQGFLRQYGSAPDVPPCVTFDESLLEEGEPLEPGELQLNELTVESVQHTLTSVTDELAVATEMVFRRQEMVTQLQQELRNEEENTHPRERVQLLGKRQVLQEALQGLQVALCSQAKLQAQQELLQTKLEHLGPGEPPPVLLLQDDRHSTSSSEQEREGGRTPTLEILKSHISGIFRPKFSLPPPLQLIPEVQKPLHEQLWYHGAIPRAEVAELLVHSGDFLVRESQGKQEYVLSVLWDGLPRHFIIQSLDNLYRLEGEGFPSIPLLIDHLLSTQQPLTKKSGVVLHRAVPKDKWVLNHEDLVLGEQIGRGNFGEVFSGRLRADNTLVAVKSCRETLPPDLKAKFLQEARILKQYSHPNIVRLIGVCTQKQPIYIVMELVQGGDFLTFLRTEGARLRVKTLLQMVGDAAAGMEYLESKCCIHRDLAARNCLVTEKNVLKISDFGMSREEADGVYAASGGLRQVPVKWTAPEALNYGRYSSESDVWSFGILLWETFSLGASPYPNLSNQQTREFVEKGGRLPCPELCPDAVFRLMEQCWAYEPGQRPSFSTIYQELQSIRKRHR
Chain of YES (P07947 whole entry): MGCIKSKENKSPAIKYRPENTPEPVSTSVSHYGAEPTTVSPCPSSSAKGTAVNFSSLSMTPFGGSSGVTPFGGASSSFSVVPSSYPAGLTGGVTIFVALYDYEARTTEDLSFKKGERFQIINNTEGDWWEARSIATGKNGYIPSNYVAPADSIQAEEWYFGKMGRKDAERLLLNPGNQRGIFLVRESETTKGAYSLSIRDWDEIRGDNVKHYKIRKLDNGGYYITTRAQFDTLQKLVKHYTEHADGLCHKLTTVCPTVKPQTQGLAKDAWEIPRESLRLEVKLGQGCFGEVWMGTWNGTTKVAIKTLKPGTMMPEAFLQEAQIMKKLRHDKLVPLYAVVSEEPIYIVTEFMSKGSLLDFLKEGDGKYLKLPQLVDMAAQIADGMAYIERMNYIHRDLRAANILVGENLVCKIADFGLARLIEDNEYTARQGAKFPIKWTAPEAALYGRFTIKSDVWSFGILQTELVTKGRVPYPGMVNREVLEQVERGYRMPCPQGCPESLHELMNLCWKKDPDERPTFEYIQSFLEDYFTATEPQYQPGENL
Chain of MAP3K1 (Q13233 whole entry): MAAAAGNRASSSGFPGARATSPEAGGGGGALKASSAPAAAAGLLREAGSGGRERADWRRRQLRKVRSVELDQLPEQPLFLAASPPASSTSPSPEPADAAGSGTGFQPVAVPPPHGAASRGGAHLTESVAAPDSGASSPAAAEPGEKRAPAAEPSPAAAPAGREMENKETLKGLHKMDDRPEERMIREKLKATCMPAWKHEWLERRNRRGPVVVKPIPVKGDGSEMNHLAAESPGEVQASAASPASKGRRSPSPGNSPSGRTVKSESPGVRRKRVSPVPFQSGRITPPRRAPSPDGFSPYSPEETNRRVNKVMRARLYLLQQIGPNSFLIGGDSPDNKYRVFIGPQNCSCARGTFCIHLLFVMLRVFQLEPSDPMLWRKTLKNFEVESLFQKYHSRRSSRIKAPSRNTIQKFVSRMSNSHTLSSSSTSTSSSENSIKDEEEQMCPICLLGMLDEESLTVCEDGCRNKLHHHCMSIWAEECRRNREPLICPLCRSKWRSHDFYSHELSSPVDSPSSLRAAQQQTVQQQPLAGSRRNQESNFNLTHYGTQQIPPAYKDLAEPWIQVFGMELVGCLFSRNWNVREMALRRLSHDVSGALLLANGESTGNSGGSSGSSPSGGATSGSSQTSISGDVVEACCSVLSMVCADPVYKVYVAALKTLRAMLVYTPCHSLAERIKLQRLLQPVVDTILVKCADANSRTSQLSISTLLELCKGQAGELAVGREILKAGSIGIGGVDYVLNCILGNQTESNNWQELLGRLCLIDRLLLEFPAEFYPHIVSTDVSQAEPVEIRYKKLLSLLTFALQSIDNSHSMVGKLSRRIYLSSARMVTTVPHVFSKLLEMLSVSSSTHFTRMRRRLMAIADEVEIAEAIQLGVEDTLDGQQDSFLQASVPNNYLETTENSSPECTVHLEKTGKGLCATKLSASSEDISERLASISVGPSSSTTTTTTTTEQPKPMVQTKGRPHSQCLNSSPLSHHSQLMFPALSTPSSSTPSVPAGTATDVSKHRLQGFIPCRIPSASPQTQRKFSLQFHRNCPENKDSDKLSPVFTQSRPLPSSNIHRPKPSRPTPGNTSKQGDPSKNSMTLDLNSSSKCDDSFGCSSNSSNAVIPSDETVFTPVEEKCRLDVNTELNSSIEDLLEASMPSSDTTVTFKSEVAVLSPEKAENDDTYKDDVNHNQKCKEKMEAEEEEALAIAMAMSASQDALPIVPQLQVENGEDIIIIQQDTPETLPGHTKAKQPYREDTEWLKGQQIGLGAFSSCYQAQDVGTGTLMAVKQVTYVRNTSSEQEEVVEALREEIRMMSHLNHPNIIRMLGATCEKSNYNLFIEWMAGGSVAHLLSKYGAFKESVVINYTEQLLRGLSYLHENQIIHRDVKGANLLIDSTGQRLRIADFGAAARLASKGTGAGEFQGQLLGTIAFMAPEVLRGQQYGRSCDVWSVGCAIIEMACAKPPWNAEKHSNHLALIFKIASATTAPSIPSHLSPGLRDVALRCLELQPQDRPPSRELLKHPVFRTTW
Chain of IRE1 (O75460 19-977): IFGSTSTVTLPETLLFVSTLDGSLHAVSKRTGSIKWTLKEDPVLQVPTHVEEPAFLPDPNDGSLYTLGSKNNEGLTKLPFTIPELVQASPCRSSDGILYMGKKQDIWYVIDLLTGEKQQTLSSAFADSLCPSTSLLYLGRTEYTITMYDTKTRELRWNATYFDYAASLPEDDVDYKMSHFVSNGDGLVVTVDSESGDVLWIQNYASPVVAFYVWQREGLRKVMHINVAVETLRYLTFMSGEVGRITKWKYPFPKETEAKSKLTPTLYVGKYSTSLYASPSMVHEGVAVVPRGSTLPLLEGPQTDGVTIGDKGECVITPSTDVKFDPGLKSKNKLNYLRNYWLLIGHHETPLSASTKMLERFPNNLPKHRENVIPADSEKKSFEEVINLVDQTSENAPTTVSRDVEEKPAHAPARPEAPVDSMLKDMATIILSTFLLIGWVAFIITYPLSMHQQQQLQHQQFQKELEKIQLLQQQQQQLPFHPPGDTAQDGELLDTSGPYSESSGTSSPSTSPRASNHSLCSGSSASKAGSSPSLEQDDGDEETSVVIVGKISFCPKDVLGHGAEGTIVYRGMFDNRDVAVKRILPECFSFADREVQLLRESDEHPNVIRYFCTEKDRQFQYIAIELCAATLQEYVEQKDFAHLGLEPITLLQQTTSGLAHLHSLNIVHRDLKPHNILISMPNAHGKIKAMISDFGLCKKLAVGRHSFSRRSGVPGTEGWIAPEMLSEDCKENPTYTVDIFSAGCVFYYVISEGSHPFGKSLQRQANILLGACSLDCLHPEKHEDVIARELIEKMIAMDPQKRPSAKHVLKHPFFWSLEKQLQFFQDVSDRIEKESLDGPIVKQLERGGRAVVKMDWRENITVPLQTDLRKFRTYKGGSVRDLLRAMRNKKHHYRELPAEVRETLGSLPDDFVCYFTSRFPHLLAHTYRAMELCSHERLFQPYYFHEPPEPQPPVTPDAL

Regarding `CS(=O)(=O)Nc1ccccc1Nc1nc(Nc2cccc(OCCN)c2)ncc1Cl` [CZC31326, N-(2-(2-(3-(2-aminoethoxy)phenylamino)-5-chloropyrimidin-4-ylamino)phenyl)methanesulfonamide], the Competition % stood at 97.1% on BTK and 95.1% on CDK2. Besides, the inhibition at 10 µM on FES is 96.3%; at IRE1, 95.1%; at MAP3K1 it was 87%; on PKD3 it was 96.9%; at YES, 91.1%.

Source of the values: patent publication US20120270237A9, “METHODS FOR THE IDENTIFICATION OF KINASE INTERACTING MOLECULES AND FOR THE PURIFICATION OF KINASE PROTEINS” (Cellzone AG, priority 2009, published 2012).
